Bounds are passed on as bounds.

One data set has as its system Mus musculus. As to conditions: acute; mortality.
For the next data set, the system named is Hypoaspis aculeifer. The note with it: chronic/long-term; duration: 14 days; reproduction.
The subject of a further data set is Tagia sp. The note with it: chronic/long-term; duration: 56 days; reproduction.
The next data set concerns Folsomia candida. The note with it: chronic/long-term; duration: 28 days; reproduction.
The next data set has as its system Aphidius rhopalosiphi. Nature of the data set: LR50; higher = less toxic. The note with it: not reported; mortality.
The next data set concerns Pimephales promelas. As to conditions: chronic/long-term; duration: 262 days; growth.
A further data set deals with Canidae. The note with it: oral, Dog Other, organ weight.
For data set [1] the following is noted: chronic.
The subject of the next data set is Colinus virginianus. The note with it: oral.
The test system of the next data set is Daphnia magna. As to conditions: chronic/long-term; duration: 21 days; reproduction.
The next data set deals with Apis mellifera. As to conditions: acute, mortality.
The test system of a further data set is Cyprinodon variegatus. As to conditions: acute; duration: 96 hours; mortality.
The subject of a further data set is Anas platyrhynchos. As to conditions: reproductive.
Another data set has as its system Bibionidae. The note with it: chronic/long-term; duration: 28 days.

Molecule `Cc1cc(C)cc(C(=O)N(NC(=O)c2cccc(O)c2C)C(C)(C)C)c1` had an LD50 in the data set on Mus musculus greater than 5000 mg/kg.

For the molecule `COc1cccc(C(=O)NN(C(=O)c2cc(C)cc(C(=O)O)c2)C(C)(C)C)c1C`, the NOEC in the data set with Hypoaspis aculeifer is 1000 mg/kg; in the data set with Tagia sp., 20 mg/kg; with Folsomia candida, 20 mg/kg.

As to `COc1cccc(C(=O)NN(C(=O)c2cc(C)cc(C)c2)C(C)(C)C)c1C` [Methoxyfenozide], the LR50 with Aphidius rhopalosiphi is greater than 192 g/ha. Also, the NOEC in the data set on Pimephales promelas was 0.53 mg/L; in data set [1], 0.01 mg/L; with Colinus virginianus (reproduction developmental, diet), greater than 82.7 mg/kg-day; in the data set with Tagia sp., 2.04 mg/kg; with Daphnia magna it was 0.39 mg/L; in the data set with Folsomia candida, 20.5 mg/kg. Also, the NOEC in the data set on Bibionidae stood at 0.0065 mg/L. The NOAEL was found to be 9.8 mg/kg-day in the data set on Canidae (chronic, duration: 1 years); 18 mg/kg-day with Canidae (short-term, duration: 2 weeks); 10.2 mg/kg-day in the data set on Rattus norvegicus (chronic, duration: 2 years, organ weight); 153 mg/kg-day in the data set on Rattus norvegicus (reproduction developmental, M, body weight). The LD50 in the data set with Colinus virginianus (acute, mortality) is greater than 2250 mg/kg-day; in the data set with Mus musculus, greater than 5000 mg/kg; in the data set with Apis mellifera (duration: 48 hours, dermal), greater than 100 µg/piece; in the data set with Apis mellifera (duration: 72 hours, oral, unspecified) it was greater than 2000 µg/piece; in the data set with Rattus norvegicus (acute, oral, mortality) it was greater than 5000 mg/kg. In addition, in the data set with Cyprinodon variegatus, the LC50 was greater than 2.8 µg/mL. The molecule further showed an NOEL in the data set on Anas platyrhynchos of 138 mg/kg-day.

Usually NOAEL stands for the highest dose or exposure tested at which no adverse effect was seen. As a reminder, the LC50 is the concentration lethal to half of the exposed cells or organisms.

The record behind these values is EPA's ToxValDB 9.5 (doi:10.2903/j.efsa.2017.4978).
